Reference: paper PMC3216989, “Bluetongue Virus VP1 Polymerase Activity In Vitro: Template Dependency, Dinucleotide Priming and Cap Dependency” (PLoS ONE, 2011)

Biological target: T1, BTV VP1 (his-tagged VP1) (Bluetongue virus (serotype 10 / American isolate), UniProt P13840)
T1 construct: gene Segment-1; tag cleavage not mentioned
Assay: in vitro polymerase assay, [α-32P]CTP incorporation into dsRNA, native PAGE
Format: biochemical
Conditions: 20 pmol in 50 µl, uncapped T7 S9 ssRNA template, Mg2+, Mn2+, pH 7.4, 37 °C, 5 h

T1 sequence (P13840 whole entry): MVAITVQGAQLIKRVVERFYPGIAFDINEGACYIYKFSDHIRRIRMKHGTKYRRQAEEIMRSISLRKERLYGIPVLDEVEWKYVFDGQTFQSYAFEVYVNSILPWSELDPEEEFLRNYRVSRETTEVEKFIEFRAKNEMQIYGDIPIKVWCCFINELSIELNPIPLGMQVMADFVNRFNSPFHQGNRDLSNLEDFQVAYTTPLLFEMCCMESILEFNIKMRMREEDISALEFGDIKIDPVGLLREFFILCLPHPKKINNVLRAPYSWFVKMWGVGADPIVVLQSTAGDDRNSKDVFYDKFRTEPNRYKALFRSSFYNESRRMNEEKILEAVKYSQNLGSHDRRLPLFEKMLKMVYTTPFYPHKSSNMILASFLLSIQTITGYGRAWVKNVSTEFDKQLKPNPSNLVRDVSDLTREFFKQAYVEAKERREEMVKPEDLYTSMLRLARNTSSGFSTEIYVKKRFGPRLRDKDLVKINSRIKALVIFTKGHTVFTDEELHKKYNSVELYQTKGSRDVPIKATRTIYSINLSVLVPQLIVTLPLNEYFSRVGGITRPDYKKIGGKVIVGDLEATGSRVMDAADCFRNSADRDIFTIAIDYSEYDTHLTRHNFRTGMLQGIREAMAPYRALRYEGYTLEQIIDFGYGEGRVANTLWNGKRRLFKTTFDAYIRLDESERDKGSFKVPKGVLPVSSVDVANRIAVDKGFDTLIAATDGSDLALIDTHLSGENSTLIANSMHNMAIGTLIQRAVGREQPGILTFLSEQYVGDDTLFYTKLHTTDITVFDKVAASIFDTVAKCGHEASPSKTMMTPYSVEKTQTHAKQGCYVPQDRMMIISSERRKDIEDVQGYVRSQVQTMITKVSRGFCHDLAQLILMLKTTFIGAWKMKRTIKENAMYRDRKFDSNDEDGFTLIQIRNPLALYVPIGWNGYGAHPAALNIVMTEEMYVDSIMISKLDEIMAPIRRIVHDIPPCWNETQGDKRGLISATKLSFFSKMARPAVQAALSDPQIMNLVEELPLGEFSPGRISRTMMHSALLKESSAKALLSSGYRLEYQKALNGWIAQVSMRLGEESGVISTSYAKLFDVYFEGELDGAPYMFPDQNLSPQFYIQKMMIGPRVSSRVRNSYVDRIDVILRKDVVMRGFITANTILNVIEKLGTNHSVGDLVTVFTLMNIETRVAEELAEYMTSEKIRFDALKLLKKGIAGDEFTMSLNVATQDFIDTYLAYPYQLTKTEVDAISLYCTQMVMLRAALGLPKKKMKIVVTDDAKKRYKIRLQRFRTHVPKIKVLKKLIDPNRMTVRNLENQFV

Compound	fold of control (activator, allosteric proposed)	further results
CO[C@H]1[C@@H](O)[C@H](n2c[n+](C)c3c(=O)[nH]c(N)nc32)O[C@@H]1COP(=O)(O)OP(=O)(O)OP(=O)(O)OC[C@H]1O[C@@H](n2cnc3c(=O)[nH]c(N)nc32)[C@H](O)[C@@H]1O [ARCA, 3′-O-methyl-m7GpppG]	dsRNA synthesis from both capped and uncapped T7 S9 ssRNA was enhanced	
Nc1nc2c(ncn2[C@@H]2O[C@H](COP(=O)(O)O[C@H]3[C@@H](O)[C@H](n4cnc5c(N)ncnc54)O[C@@H]3CO)[C@@H](O)[C@H]2O)c(=O)[nH]1 [ApG]		fold of control (priming dinucleotide): GpG and ApG, which complement only the last nucleotide
Nc1nc2c(ncn2[C@@H]2O[C@H](COP(=O)(O)O[C@H]3[C@@H](O)[C@H](n4cnc5c(=O)[nH]c(N)nc54)O[C@@H]3CO)[C@@H](O)[C@H]2O)c(=O)[nH]1 [GpG]		fold of control (priming dinucleotide, additional allosteric effect proposed): GpG and ApG, which complement only the last nucleotide
Nc1nc2c(ncn2[C@@H]2O[C@H](COP(=O)(O)OP(=O)(O)OP(=O)(O)OC[C@H]3O[C@@H](n4cnc5c(N)ncnc54)[C@H](O)[C@@H]3O)[C@@H](O)[C@H]2O)c(=O)[nH]1 [GpppA]	dsRNA synthesis from both capped and uncapped T7 S9 ssRNA was enhanced	
Nc1nc2c(ncn2[C@@H]2O[C@H](COP(=O)(O)OP(=O)(O)OP(=O)(O)OC[C@H]3O[C@@H](n4cnc5c(=O)[nH]c(N)nc54)[C@H](O)[C@@H]3O)[C@@H](O)[C@H]2O)c(=O)[nH]1 [GpppG]	enhanced by the addition of all cap analogues, with GpppG showing the greatest enhancement	
C[n+]1cn([C@@H]2O[C@H](COP(=O)(O)OP(=O)(O)OP(=O)(O)OC[C@H]3O[C@@H](n4cnc5c(=O)[nH]c(N)nc54)[C@H](O)[C@@H]3O)[C@@H](O)[C@H]2O)c2nc(N)[nH]c(=O)c21 [m7GpppG]	dsRNA synthesis from both capped and uncapped T7 S9 ssRNA was enhanced	
